# From BindingDB's records for doi:10.1021/ja0446404 (Yale University, 2005)
# Biological target: Bcl-2-like protein 1 (Homo sapiens, UniProt Q07817)
# Experiment: Fluorescence Polarization Assay
# Description: Fluorescence polarization experiments were conducted on a Photon Technology International instrument using a 0.3 cm path length cuvette. Spectra were measured at 25 deg C using 10.0 nm slit widths. Excitation at 495 nm was used for the fluorescein-containing peptide Fl-Bak and the emission maximum at 535 nm was monitored. Polarization measurements were recorded upon titration of inhibitors at varying concentrations into a solution of Fl-Bak and Bcl-xL.
# Sequence of Bcl-2-like protein 1 (Q07817 whole entry): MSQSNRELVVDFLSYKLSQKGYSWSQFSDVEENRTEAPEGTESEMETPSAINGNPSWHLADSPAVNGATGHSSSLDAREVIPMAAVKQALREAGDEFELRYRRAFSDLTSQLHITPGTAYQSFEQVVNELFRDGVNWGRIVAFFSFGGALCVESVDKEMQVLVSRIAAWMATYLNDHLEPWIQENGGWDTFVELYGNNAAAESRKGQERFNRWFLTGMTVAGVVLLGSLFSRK
SMILES,"Ki (pH 7.4, 25 °C) [µM]",Ki [µM]
"COC(=O)[C@H](CC(C)C)NC(=O)c1ccc(C(=O)N(C)C)cc1OC(C)C [terephthalamide scaffold, 34]",3.14,–
"COc1cc(C(=O)N(C(C)C)C(C)C)ccc1C(=O)N[C@@H](CC(C)C)C(=O)O [terephthalamide scaffold, 28]",2.31,–
"COC(=O)[C@H](Cc1ccccc1)NC(=O)c1ccc(C(=O)N(C(C)C)C(C)C)cc1OC(C)C [terephthalamide scaffold, 25]",10.9,–
"COC(=O)[C@H](CC(C)C)NC(=O)c1ccc(C(=O)N(C(C)C)C(C)C)cc1Oc1ccc([N+](=O)[O-])cc1 [terephthalamide scaffold, 32]",13.2,–
"CC(C)C[C@H](NC(=O)c1ccc(C(=O)N(CC(C)C)[C@H](C(=O)O)C(C)C)cc1OC(C)C)C(=O)O [terephthalamide scaffold, 47]",–,450
"CC(C)C[C@H](NC(=O)c1ccc(C(=O)N(C(C)C)C(C)C)cc1Oc1ccc2ccccc2c1)C(=O)O [terephthalamide scaffold, 31]",7.63,–
"CC(C)C[C@H](NC(=O)c1ccc(C(=O)N[C@@H](CC(C)C)C(=O)O)c(Oc2ccc3ccccc3c2)c1)C(=O)O [terephthalamide scaffold, 50]",–,82.1
